Measured values as given in patent US6733971B2, “Method for identifying an agent that affects a hedgehog signaling pathway” (priority 1998, dated 2004).

Tests used:
[1] = tested on: Islet-1 and neurofilament (NFL); experiment: Mouse neural tube explants, whole-mount immunostaining; assay type: cell-based; settings: 5 nM for 24 hours
Description: Mouse embryos at embryonic day 9-9.5 were dissected in such a way as to remove surface ectoderm and somitic mesoderm and neural tubes were isolated from the level of rhombomere 8 in the rostral region to the first segmenting somite in the caudal region. Neural tubes were cultured for 24 hours, dorsal-side down on Millicell-CM membranes and overlayed with Matrigel™ containing 10 ng/ml NT-3, with L15 air in presence or absence of 5nM OA. The explants were subjected to whole-mount immunostaining using a monoclonal antibody raised against mouse Islet-1 (39.4D5) or neurofilament (NFL) was used to analyze any changes in Islet-1 and NFL expression.

[2] = tested on: HNF3β and Isl-1; experiment: SHH induction of HNF3β and Isl-1 in chick embryo neurotube explant; assay type: cell-based
Source text: Most of the components identified so far in the HH signaling pathway are conserved from Drosophila to vertebrates. The phosphatase activity found in cl-8 cells may also be conserved in vertebrates. Sonic HH (SHH), the vertebrate homolog of HH, induced the floor plate marker hepatocyte nuclear factor 3β (HNF3) and motor neuron marker islet-1 (Is1-1) in the developing neurotube. In chick embryo neurotube explant, exogenously provided SHH induced the expression of HNF3β and Isl-1.

[3] = tested on: COUP-TFII mRNA; experiment: COUP-TFII mRNA in P19 cells, RNase protection assay; assay type: cell-based, mouse; settings: 5 nM for 12 hours, with 1.0 nM Shh-N
Description: The P19 mouse embryo carcinoma cell line which was earlier shown to contain increased levels of COUP-TF transcripts after retinoid treatment was utilized. Jonk, L. J. C., et al., Mechan. of Dev. (1994) 47:81-97). Conditioned media obtained from COS-1 cells transfected with mouse Shh-N cDNA expression plasmid or purified E. coli expressed recombinant Shh-N was used.
Briefly, a total of 20 μg RNA was hybridized to a 450 (FIG. 5A) or 120 (FIG. 7B) nucleotide riboprobe that corresponds to the 5′ untranslated region (UTR) of the COUP-TFII gene along with a 670 (FIG. 5A) or 102 (FIG. 7B) nucleotide riboprobe of the murine Cyclophilin A coding region. The RPA II™ kit from Ambion was used to perform the RNase protection assay. The products were subjected to RNase digestion and analyzed on a 6% urea polyacrylamide gel.
P-19 cells were treated with phosphatase inhibitors to study the endogenous levels of COUP-TFII mRNA. […] Total RVA was isolated from these cells and 20 μg of RNA was used in a RNase protection assay as described above in Example 6. A region of the murine Cyclophilin A cDNA was used to generate riboprobe and was used as an internal control. P19 cells were co-treated with (FIG. 7C, lane 2, 4, 6, and 7) or without (FIG. 7C, lane 1, 3, and 5) 1.0 nM Shh-N and 5 nM OA (lane 3 and 4), 0.5 nM CyA (FIG. 7C, lane 5 & 6) or 5 nm NoA (FIG. 7C, lane 9). Cells were harvested after 24 hours of treatment and the nuclear extract was obtained for the binding reactions. Extracts were subjected to an EMSA as described earlier.

[4] = tested on: PP1 and PP2A enzyme activity; experiment: Protein phosphatase assay on nuclear extracts of control and Shh treated P19 cells; assay type: biochemical, mouse; settings: 2 nM, 15 minutes at 30° C., nuclear extracts of 1 nM Shh treated P19 cells
Description: P19 cells were treated with or without 1 nM Shh for 36 hours and nuclear extracts from these cells were obtained as described earlier. A protein phosphatase assay system™ (Life Technologies, Bethesda) was used to quantitate the phosphatase activity present in the control and induced extracts. P19 cells were treated with or without 1 nM Shh for 36 hours and nuclear extracts from these cells were obtained and incubated with 2 nM OA or 4 nM Inh-2 protein for 15 minutes at 30° C. Results are expressed as mean±sd from three separate experiments.

[5] = tested on: ShhRE reporter gene; experiment: Shh-N mediated induction of ShhRE reporter gene activity; assay type: cell-based, mouse; settings: 5 nM (data not shown)
Description: Methods described above in Example 6 were used in addition to the following protocols. P19 cells were transfected with a ShhRE-tkLUC reporter plasmid and three copies of a mutant element called mShhRE-tkLUC and treated with or without 1 nM Shh. Cell lysates were obtained after 30 hours and were later assayed for luciferase reporter activity. A graph (FIG. 5B) representing relative luciferase units per twenty μg (RLU/20 μg) was plotted using results obtained from three separate experiments (mean ±sd).

[6] = tested on: PP2C; settings: cited from earlier work
[7] = tested on: Isl1 mRNA; experiment: Isl1 mRNA in P19 cells, RT-PCR; assay type: cell-based, mouse; settings: 5 nM for 12 hours, 1 nM Shh-N for 24 hours
Description: Methods described in Example 6 were used in addition to the following protocols. P19 cells were treated with (FIG. 8A, lanes 2 and 4) or without (FIG. 8A, lanes 1 and 3) 1 nM Shh-N for 24 hours and 5 nM OA (FIG. 8A, lanes 3 and 4) for 12 hours and total RNA was obtained. An internal control containing a 763 bp insert into the SphI site of the Islet-1 cDNA was transcribed in vitro to prepare sense-oriented RNA. 1 ng of this RNA along with 100 ng of total RNA from appropriately treated P19 cells was reverse transcribed using Superscript II™ and one-tenth of each reaction was PCR amplified. Specific primers for Islet-1; Forward primer: 5′TCAAAC CTA CTT TGG GGT CTT A 3′SEQ ID NO:5. Reverse primer: 5′ATCGCCGGGGATGAGCTGGCGGCT 3′SEQ ID NO:6, and for COUP-TFII; Forward primer: 5′GATATGGCAATGGTAGTCAGCACGTGG 3′. SEQ ID NO:7, Reverse primer: 5′AGCTTCTCCACTTGCTCTTGG 3′SEQ ID NO:8, were used to PCR amplify (94° C. for 1 minute, 54° C. for 1 minute, and 72° C. for 1 minute. Twenty-two cycles were used for amplifying Islet-1 and the resulting products were separated on a 1% agarose gel in TAE buffer and visualized by ethidium bromide staining. A 1 kb DNA ladder (Stratagene) was used to estimate the size of the products. A 427 bp Isl1 fragment and a 838 bp COUP-TFII fragment was used to estimate changes in mRNA levels.

[8] = tested on: PP2B; settings: cited from earlier work
[9] = tested on: SV40 enhancer; experiment: Constitutively active SV40 enhancer luciferase reporter (specificity control); assay type: cell-based; settings: 5 nM (data not shown)

C=C1[C@@H](O)[C@@H]2O[C@]3(CC[C@H](/C=C/[C@@H](C)[C@@H]4CC(C)=C[C@@]5(O[C@H](C[C@@](C)(O)C(=O)O)CC[C@H]5O)O4)O3)CC[C@H]2O[C@@H]1[C@@H](O)C[C@H](C)[C@H]1O[C@@]2(CCCCO2)CC[C@H]1C [OA, okadaic acid]
neurofilament staining within the neural tube [1]: no effect | levels of immunodetectable Is11 protein ([1]; 9.5 dpc mouse neural tube explants): significantly decreased | induction of HNF3β and Isl-1 ([2]; 1 nM, 2.5 mg/ml of SHH): reduced the induction | effect on induction of HNF3β and Isl-1 at higher SHH ([2]; 1 nM, 10 mg/ml of SHH): reversed | induction of HNF3β and Isl-1 ([2]; 10 nM, 10 mg/ml of SHH): completely blocked the induction | Shh-induced COUP-TFII mRNA [3]: complete inhibition | Shh-induced phosphatase activity [4]: completely abolished | Shh-N mediated induction of ShhRE reporter gene activity [5]: completely blocked | effect on PP2C [6]: no effect | Shh-N induction of Is11 mRNA [7]: completely blocked | effect on PP2B [8]: no effect | SV40 enhancer driven luciferase reporter gene activity [9]: did not effect
